Data: patent publication EP0090603A2, “Antibacterial compounds” (BEECHAM GROUP PLC, priority 1982, dated 1983)
In brackets after ≈: the same amount, converted by molar mass.

Columns and labels:
Assay type in all cases: cell-based
[1] = tested on: M. hyosynoviae ATCC 25591; test: MIC against Mycoplasma, in vitro agar dilution; details: Friis broth solidified with 0.9% agarose, 10^3 to 10^5 C.F.U., 6 days at 37°C; for MIC: 144 h, read-out: MIC's against M. hyosynoviae ATCC 25591
[2] = tested on: M. suipneumoniae NCTC 10110; test: MIC against Mycoplasma, in vitro agar dilution; details: Friis broth solidified with 0.9% agarose, 10^3 to 10^5 C.F.U., 6 days at 37°C; for MIC: Mesomycoplasma hyopneumoniae, NCTC10110, 144 h, read-out: MIC's against M. suipneumoniae NCTC 10110
M. suipneumoniae NB12 = test: MIC against Mycoplasma, in vitro agar dilution; details: Friis broth solidified with 0.9% agarose, 10^3 to 10^5 C.F.U., 6 days at 37°C; for MIC: Mesomycoplasma hyopneumoniae, NB12, 144 h, read-out: MIC's against M. suipneumoniae NB12
M. dispar NCTC 10125 = test: MIC against Mycoplasma, in vitro agar dilution; details: Friis broth solidified with 0.9% agarose, 10^3 to 10^5 C.F.U., 6 days at 37°C; for MIC: 144 h, read-out: MIC's against M. dispar NCTC 10125
M. suipneumoniae LABER = test: MIC against Mycoplasma, in vitro agar dilution; details: Friis broth solidified with 0.9% agarose, 10^3 to 10^5 C.F.U., 6 days at 37°C; for MIC: Mesomycoplasma hyopneumoniae, 144 h, read-out: MIC's against M. suipneumoniae LABER
M. suipneumoniae HK(2) = test: MIC against Mycoplasma, in vitro agar dilution; details: Friis broth solidified with 0.9% agarose, 10^3 to 10^5 C.F.U., 6 days at 37°C; for MIC: Mesomycoplasma hyopneumoniae, 144 h, read-out: MIC's against M. suipneumoniae HK(2)
M. suipneumoniae UCD 1 = test: MIC against Mycoplasma, in vitro agar dilution; details: Friis broth solidified with 0.9% agarose, 10^3 to 10^5 C.F.U., 6 days at 37°C; for MIC: Mesomycoplasma hyopneumoniae, UCD1, 144 h, read-out: MIC's against M. suipneumoniae UCD 1
M. pneumoniae ATCC 15492 = test: MIC against Mycoplasma, in vitro agar dilution; details: Friis broth solidified with 0.9% agarose, 10^3 to 10^5 C.F.U., 6 days at 37°C; for MIC: Mycoplasmoides pneumoniae, ATCC15492, 144 h, read-out: MIC's against M. pneumoniae ATCC 15492
M. suipneumoniae Str. 11 = test: MIC against Mycoplasma, in vitro agar dilution; details: Friis broth solidified with 0.9% agarose, 10^3 to 10^5 C.F.U., 6 days at 37°C; for MIC: Mesomycoplasma hyopneumoniae, STR.11, 144 h, read-out: MIC's against M. suipneumoniae Str. 11
M. suipneumoniae MS 16 = test: MIC against Mycoplasma, in vitro agar dilution; details: Friis broth solidified with 0.9% agarose, 10^3 to 10^5 C.F.U., 6 days at 37°C; for MIC: Mesomycoplasma hyopneumoniae, MS16, 144 h, read-out: MIC's against M. suipneumoniae MS 16
[3] = tested on: M. suipneumoniae PW/C/210; test: MIC against Mycoplasma, in vitro agar dilution; details: Friis broth solidified with 0.9% agarose, 10^3 to 10^5 C.F.U., 6 days at 37°C; for MIC: Mesomycoplasma hyopneumoniae, 144 h, read-out: MIC's against M. suipneumoniae PW/C/210
M. suipneumoniae JF 435 = test: MIC against Mycoplasma, in vitro agar dilution; details: Friis broth solidified with 0.9% agarose, 10^3 to 10^5 C.F.U., 6 days at 37°C; for MIC: Mesomycoplasma hyopneumoniae, JF435, 144 h, read-out: MIC's against M. suipneumoniae JF 435
M. gallisepticum S6 = test: MIC against Mycoplasma, in vitro agar dilution; details: Friis broth solidified with 0.9% agarose, 10^3 to 10^5 C.F.U., 6 days at 37°C; for MIC: Mycoplasmoides gallisepticum, S6, 144 h, read-out: MIC's against M. gallisepticum S6
M. hyorhinis ATCC 25021 = test: MIC against Mycoplasma, in vitro agar dilution; details: Friis broth solidified with 0.9% agarose, 10^3 to 10^5 C.F.U., 6 days at 37°C; for MIC: Mesomycoplasma hyorhinis, ATCC25021, 144 h, read-out: MIC's against M. hyorhinis ATCC 25021
[4] = tested on: M. suipneumoniae ATCC 25095; test: MIC against Mycoplasma, in vitro agar dilution; details: Friis broth solidified with 0.9% agarose, 10^3 to 10^5 C.F.U., 6 days at 37°C; for MIC: Mesomycoplasma hyopneumoniae, ATCC25095, 144 h, read-out: MIC's against M. suipneumoniae ATCC 25095
M. hyorhinis ATCC 23234 = test: MIC against Mycoplasma, in vitro agar dilution; details: Friis broth solidified with 0.9% agarose, 10^3 to 10^5 C.F.U., 6 days at 37°C; for MIC: Mesomycoplasma hyorhinis, ATCC23234, 144 h, read-out: MIC's against M. hyorhinis ATCC 23234
[5] = tested on: M. bovigenitalium ATCC 14173; test: MIC against Mycoplasma, in vitro agar dilution; details: Friis broth solidified with 0.9% agarose, 10^3 to 10^5 C.F.U., 6 days at 37°C; for MIC: 144 h, read-out: MIC's against M. bovigenitalium ATCC 14173
[6] = tested on: M. suipneumoniae J2206/183^b; test: MIC against Mycoplasma, in vitro agar dilution; details: Friis broth solidified with 0.9% agarose, 10^3 to 10^5 C.F.U., 6 days at 37°C; for MIC: Mesomycoplasma hyopneumoniae, 144 h, read-out: MIC's against M. suipneumoniae J2206/183^b
M. suipneumoniae TAM 6N = test: MIC against Mycoplasma, in vitro agar dilution; details: Friis broth solidified with 0.9% agarose, 10^3 to 10^5 C.F.U., 6 days at 37°C; for MIC: Mesomycoplasma hyopneumoniae, TAM6N, 144 h, read-out: MIC's against M. suipneumoniae TAM 6N
M. bovis NCTC 10131 = test: microbe, parasite or virus in culture; details: for MIC's against M. bovis NCTC 10131: Friis broth solidified with 0.9% agarose, 10^3 to 10^5 C.F.U., 6 days at 37°C; for MIC: NCTC10131, 144 h, read-out: MIC's against M. bovis NCTC 10131

Row | Compound | MIC [1] [µg/mL] | MIC [2] [µg/mL] | MIC (M. suipneumoniae NB12) [µg/mL] | MIC (M. dispar NCTC 10125) [µg/mL] | MIC (M. suipneumoniae LABER) [µg/mL] | MIC (M. suipneumoniae HK(2)) [µg/mL] | MIC (M. suipneumoniae UCD 1) [µg/mL] | MIC (M. pneumoniae ATCC 15492) [µg/mL] | MIC (M. suipneumoniae Str. 11) [µg/mL] | MIC (M. suipneumoniae MS 16) [µg/mL] | MIC [3] [µg/mL] | MIC (M. suipneumoniae JF 435) [µg/mL] | MIC (M. gallisepticum S6) [µg/mL] | MIC (M. hyorhinis ATCC 25021) [µg/mL] | MIC [4] [µg/mL] | MIC (M. hyorhinis ATCC 23234) [µg/mL] | MIC [5] [µg/mL] | MIC [6] [µg/mL] | MIC (M. suipneumoniae TAM 6N) [µg/mL] | MIC (M. bovis NCTC 10131) [µg/mL] | other results
1 | 4-(Methylthio)benzyl 2-methylmonate [Example 11] |  |  |  |  |  |  |  |  |  |  |  |  |  |  |  |  |  |  |  |  | MIC's against M. hyosynoviae ATCC 25591 [1]: 0.25 µg/mL; MIC's against M. suipneumoniae NCTC 10110 [2]: 2.5 µg/mL; MIC's against M. suipneumoniae NB12 (M. suipneumoniae NB12): 1.0 µg/mL; MIC's against M. dispar NCTC 10125 (M. dispar NCTC 10125): 0.5 µg/mL; MIC's against M. suipneumoniae LABER (M. suipneumoniae LABER): 1.0 µg/mL; MIC's against M. suipneumoniae HK(2) (M. suipneumoniae HK(2)): 2.5 µg/mL; MIC's against M. suipneumoniae UCD 1 (M. suipneumoniae UCD 1): 2.5 µg/mL; MIC's against M. pneumoniae ATCC 15492 (M. pneumoniae ATCC 15492): 5.0 µg/mL; MIC's against M. suipneumoniae Str. 11 (M. suipneumoniae Str. 11): 1.0 µg/mL; MIC's against M. suipneumoniae MS 16 (M. suipneumoniae MS 16): 1.0 µg/mL; MIC's against M. suipneumoniae PW/C/210 [3]: 1.0 µg/mL; MIC's against M. suipneumoniae JF 435 (M. suipneumoniae JF 435): 2.5 µg/mL; MIC's against M. gallisepticum S6 (M. gallisepticum S6): 10 µg/mL; MIC's against M. hyorhinis ATCC 25021 (M. hyorhinis ATCC 25021): 0.5 µg/mL; MIC's against M. suipneumoniae ATCC 25095 [4]: 2.5 µg/mL; MIC's against M. hyorhinis ATCC 23234 (M. hyorhinis ATCC 23234): 1.0 µg/mL; MIC's against M. bovigenitalium ATCC 14173 [5]: 0.1 µg/mL; MIC's against M. suipneumoniae J2206/183^b [6]: 2.5 µg/mL; MIC's against M. suipneumoniae TAM 6N (M. suipneumoniae TAM 6N): 2.5 µg/mL; MIC's against M. bovis NCTC 10131 (M. bovis NCTC 10131): 0.05 µg/mL
2 | CC(CC1OCC(CC2OC2C(C)C(C)O)C(O)C1O)=C(C)C(=O)OCc1cc(C)no1 (stereo not shown) [Example 14, 3-Methyl-5-isoxazolylmethyl 2-methylmonate A] | 0.1 (≈ 0.22 µM) | 0.5 (≈ 1.1 µM) | 0.5 (≈ 1.1 µM) | 0.1 (≈ 0.22 µM) | 0.25 (≈ 0.551 µM) | 0.5 (≈ 1.1 µM) | 0.5 (≈ 1.1 µM) | 1 (≈ 2.2 µM) | 0.25 (≈ 0.551 µM) | 0.25 (≈ 0.551 µM) | 0.25 (≈ 0.551 µM) | 0.5 (≈ 1.1 µM) | 1 (≈ 2.2 µM) | 0.25 (≈ 0.551 µM) | 0.5 (≈ 1.1 µM) | 0.25 (≈ 0.551 µM) | 0.025 (≈ 0.0551 µM) | 0.5 (≈ 1.1 µM) | 1 (≈ 2.2 µM) | ≤ 0.01 | 
3 | CC(CC1OCC(CC2OC2C(C)C(C)O)C(O)C1O)=C(C)C(=O)OCCCCCCCCC(=O)O [Example 7, Sodium 9-[4-(5S-(2S,3S-epoxy-5S-hydroxy-4S-methylhexyl) -3R,4R-dihdroxytetrahydroxyran-2S-yl)-2,3-dimethylbut-2(E)-enoyloxy]nonanoate] | 1 | 10 | 10 | 2.5 | 5 | > 10 | > 10 | > 10 | 5 | 5 | 5 | > 10 | > 10 | 2.5 | 10 | 2.5 | 0.5 | > 10 | > 10 | 0.05 | 
4 | 8-Hydroxyoctyl 2-methylmonate A [Example 13] |  |  |  |  |  |  |  |  |  |  |  |  |  |  |  |  |  |  |  |  | MIC's against M. hyosynoviae ATCC 25591 [1]: 0.1 µg/mL; MIC's against M. suipneumoniae NCTC 10110 [2]: 1.0 µg/mL; MIC's against M. suipneumoniae NB12 (M. suipneumoniae NB12): 1.0 µg/mL; MIC's against M. dispar NCTC 10125 (M. dispar NCTC 10125): 0.1 µg/mL; MIC's against M. suipneumoniae LABER (M. suipneumoniae LABER): 0.5 µg/mL; MIC's against M. suipneumoniae HK(2) (M. suipneumoniae HK(2)): 1.0 µg/mL; MIC's against M. suipneumoniae UCD 1 (M. suipneumoniae UCD 1): 1.0 µg/mL; MIC's against M. pneumoniae ATCC 15492 (M. pneumoniae ATCC 15492): 1.0 µg/mL; MIC's against M. suipneumoniae Str. 11 (M. suipneumoniae Str. 11): 0.5 µg/mL; MIC's against M. suipneumoniae MS 16 (M. suipneumoniae MS 16): 0.5 µg/mL; MIC's against M. suipneumoniae PW/C/210 [3]: 0.5 µg/mL; MIC's against M. suipneumoniae JF 435 (M. suipneumoniae JF 435): 1.0 µg/mL; MIC's against M. gallisepticum S6 (M. gallisepticum S6): 5.0 µg/mL; MIC's against M. hyorhinis ATCC 25021 (M. hyorhinis ATCC 25021): 0.5 µg/mL; MIC's against M. suipneumoniae ATCC 25095 [4]: 0.5 µg/mL; MIC's against M. hyorhinis ATCC 23234 (M. hyorhinis ATCC 23234): 0.5 µg/mL; MIC's against M. bovigenitalium ATCC 14173 [5]: 0.05 µg/mL; MIC's against M. suipneumoniae J2206/183^b [6]: 1.0 µg/mL; MIC's against M. suipneumoniae TAM 6N (M. suipneumoniae TAM 6N): 1.0 µg/mL; MIC's against M. bovis NCTC 10131 (M. bovis NCTC 10131): ≤0.01 µg/mL
5 | CC(CC1OCC(CC2OC2C(C)C(C)O)C(O)C1O)=C(C)C(=O)OCc1ccc(Br)cc1 (stereo not shown) [Example 12, 4-Bromobenzyl 2-methylmonate A] | 2.5 (≈ 4.74 µM) | 10 (≈ 19 µM) | 5 (≈ 9.48 µM) | 2.5 (≈ 4.74 µM) | 5 (≈ 9.48 µM) | 10 (≈ 19 µM) | 10 (≈ 19 µM) | 10 (≈ 19 µM) | 5 (≈ 9.48 µM) | 5 (≈ 9.48 µM) | 5 (≈ 9.48 µM) | 10 (≈ 19 µM) | > 10 | 2.5 (≈ 4.74 µM) | 5 (≈ 9.48 µM) | 2.5 (≈ 4.74 µM) | 0.25 (≈ 0.474 µM) | 10 (≈ 19 µM) | 10 (≈ 19 µM) | 0.1 (≈ 0.19 µM) | 
